Results on nine compounds are retold here after US20110311613A1, “TOPICAL FORMULATIONS OF FLAP INHIBITORS FOR THE TREATMENT OF DERMATOLOGICAL CONDITIONS” (AMIRA PHARMACEUTICAL, INC., priority 2008, published 2011).

SMILES strings stand for the structures. Like-named read-outs stand apart in the source and are kept apart here.

In one series the test system is Male Sprague Dawley Rats. Put plainly: Rat abraded skin model, acute irritancy (Draize scoring) following dermal administration. Type of series: in vivo. The note with it: 2 mL of 10 mg/mL solution on abraded skin, occluded 24 hours; erythema, edema scored at 24, 48 and 72 hours; each animal. How it is done: (§1) Male Sprague Dawley Rats (n=3 per group) were shaved on the back such that approximately 20% of the body area surface was exposed. The shaved skin was mildly abraded then 2 mL of a 10 mg/mL solution of the test compound in a formulation containing 75% propylene glycol, 15% transcutol, 10% water was applied to the abraded skin. The site of administration was occluded for 24 hours after which time the skin was cleansed of excess material (if any). Plasma samples were drawn from each rat at 2, 4, 24 and 72 hours.
Visual analysis of erythema, edema or other dermal findings were recorded prior to dosing then at 24, 48 and 72 hours. Scoring followed a Draize protocol.

The nature of series [1]: Solubility in topical formulation (75% propylene glycol, 15% transcutol, 10% water). It counts as physicochemical. Conditions: aqueous with cosolvent or surfactant or cyclodextrin, solution of 75% propylene glycol, read-out: soluble in topical formulation. How it is done: In one aspect, a topical formulation of a FLAP inhibitor compound is prepared by mixing a FLAP inhibitor compound with propylene glycol, transcutol and water. In one aspect, the topical formulation includes a FLAP inhibitor compound (10 mg/mL) in a solution of 75% propylene glycol, 15% transcutol, 10% water.
Using this formulation, the following FLAP inhibitor compounds are all soluble at 10 mg/mL: Compound A (Na salt), Compound B (Na salt), Compound C (acid and Na salt), Compound F (Na salt), Compound G (Na salt), Compound I (acid), and Compound J (Na salt).

Series [2] is described as follows: Rat abraded skin model, skin penetration (plasma levels) following dermal administration. Type of series: in vivo. The note with it: for plasma levels (PK analysis): abraded skin, samples at 2, 4, 24 and 72 hours; for concentration at 24 h: male, Sprague Dawley, plasma, topical, 20 mg, 2 mL of 10 mg/mL solution on abraded skin, occluded 24 hours, read-out: plasma levels at the 24 hour time point. How it is done: as §1

For series [3] the following is noted: mouse, in vivo, 10 mg/kg.
Experimental: (§5) BALB/c mice were divided into groups and acclimatized in cages for 24 hours (day 0). The control group was exposed to air and the test group was exposed to smoke from seven unfiltered cigarettes per day for 8 days (day 1 to day 8). […] On day 14, bronchioalveolar lavage fluid (BALF) is tested for influx of cells, cytokines, chemokines (e.g., KC, IL-17, MIP-2, IL-6), mucin, and/or proteins. Lung histology is also examined.
Series [4] in a line: Trough plasma concentration in subchronic smoking mouse model. Conditions: BALB/c mice, combination DP2 receptor antagonist + FLAP inhibitor.
Experimental: as §5
A further series has as its system Leukotriene B4 (LTB4). Put plainly: Mouse arachidonic acid-induced ear inflammation model, leukotriene analysis (EIA) of LTB4. Type of series: in vivo. How it is done:
(§2) A mouse arachidonic acid (AA)—induced ear inflammation model was utilized to determine the extent of inhibition of ear swelling and leukotriene (LT) production by oral and topical application of a 5-lipoxygenase-activating protein (FLAP) inhibitor. Methods were adapted from Byrum et al., J Exp Med. 1997 Mar. 17; 185(6):1065-75).
(§3) Female CD-1 mice (weighing 18-20 grams) were administered compound orally (30 mg/kg in 10 ml/kg of 0.5% methylcellulose vehicle) or topically at concentrations of 0.01-10% by weight to the experimental ear and vehicle was applied to the opposite control ear. Four hours following compound administration a […] aliquot of a 4 mg/ml solution of AA in ethanol was applied to the experimental (right) ear and vehicle (ethanol) was applied to the control (left) ear. Thirty minutes later mice were placed into an enclosed Plexiglas chamber and exposed to CO2 for a period of 1-2 minutes or until breathing ceased. Ear biopsies were then taken for assessment of inflammation and leukotriene levels.
(§4) The ear punch was placed into a tris buffer containing 0.01% triton x and homogenized using a polytron probe homogenizer. The sample was then centrifuged at 10,000×g for 10 minutes at 4° C. Leukotriene B4 (LTB4) and cysteinyl leukotriene (CysLT) concentrations in the supernatant were determined by enzyme-immunoassay (EIA).

Series [5] has as its system cysteinyl leukotriene (CysLT). Put plainly: Mouse arachidonic acid-induced ear inflammation model, leukotriene analysis (EIA) of CysLT. Type of series: in vivo. The method, then: as §2, §3, §4
In series [6] the test system is arachidonic acid-induced ear inflammation. Put plainly: Mouse arachidonic acid-induced ear inflammation model, ear inflammation (ear punch weight). It counts as in vivo. How it is done: as §2, §3
An eight mm ear punch was taken from a similar location of each experimental ear and each control ear and weighed. The extent of inflammation was determined by the difference in weight between the experimental ear and control ear [experimental ear (mg)-control ear (mg)]. A typical response for this assay is in the range of 4 and 12 mg increase in weight. Ear punches were then frozen for later assessment of leukotrienes.

`CCC(CC)(Cc1c(SC(C)(C)C)c2cc(OCc3ccc(C)cn3)ccc2n1Cc1ccc(-c2ncc(OC)cn2)cc1)C(=O)O` [Compound G, 2-[3-tert-Butylsulfanyl-1-[4-(5-methoxy-pyrimidin-2-yl)-benzyl]-5-(5-methyl-pyridin-2-ylmethoxy)-1H-indol-2-ylmethyl]-2-ethyl-butyric acid] yielded a Draize score in the series on Male Sprague Dawley Rats of 0. In addition, in series [1], the solubility is at least 10000 µg/mL. For the same compound, in series [2], the “plasma levels (PK analysis)” value was “measurable plasma levels” and the concentration at 24 h is under 110 ng/mL.
Turning to `CCN(Cc1cc(C(F)(F)F)ccc1-c1cncc(CC(=O)O)c1)C(=O)OCc1ccccc1` [DP2 receptor antagonist], the “Plasma concentration @ trough” value in series [3] is under 10 nM.
`COc1cnc(-c2ccc(Cn3c(CC(C)(C)C(=O)O)c(SC(C)(C)C)c4cc(OCc5cnc(C)cn5)ccc43)cc2)nc1` [Compound B, 3-[3-tert-Butylsulfanyl-1-[4-(5-methoxy-pyrimidin-2-yl)-benzyl]-5-(5-methyl-pyrazin-2-ylmethoxy)-1H-indol-2-yl]-2,2-dimethyl-propionic acid]: the Draize score in the series on Male Sprague Dawley Rats is given as 0. The solubility in series [1] was at least 10000 µg/mL. Also, in series [2], the “plasma levels (PK analysis)” value is recorded as “measurable plasma levels” and the concentration at 24 h was under 110 ng/mL.
In the same order, the values of `CC(C)(C)Sc1c(CC(C)(C)C(=O)O)n(Cc2ccc(-c3ccc(F)cn3)cc2)c2ccc(OCc3ccccn3)cc12` [Compound J, 3-[3-tert-butylsulfanyl-1-[4-(5-fluoro-pyridin-2-yl)-benzyl]-5-(pyridin-2-ylmethoxy)-1H-indol-2-yl]-2,2-dimethyl-propionic acid] are 0, at least 10000 µg/mL, “measurable plasma levels” and under 110 ng/mL.
Consider `COc1ccc(-c2ccc(Cn3c(CC(C)(C)C(=O)O)c(SC(C)(C)C)c4cc(OCc5ccc(C)cn5)ccc43)cc2)cn1` [FLAP inhibitor, 3-(3-(tert-butylthio)-1-(4-(6-methoxypyridin-3-yl)benzyl)-5-((5-methylpyridin-2-yl)methoxy)-1H-indol-2-yl)-2,2-dimethylpropanoic acid], for which the “Plasma concentration @ trough” value in series [4] is 136 (FLAP inhibitor) nM.
For `COc1cnc(-c2ccc(Cn3c(CC(C)(C)C(=O)O)c(SC(C)(C)C)c4cc(OC[C@@H]5Cc6ccccc6N5C(C)=O)ccc43)cc2)nc1` [Compound C, 3-{5-((S)-1-Acetyl-2,3-dihydro-1H-indol-2-ylmethoxy)-3-tert-butylsulfanyl-1-[4-(5-methoxy-pyrimidin-2-yl)-benzyl]-1H-indol-2-yl}-2,2-dimethyl-propionic acid], the Draize score in the series with Male Sprague Dawley Rats was 0. For the same compound, the solubility in series [1] is at least 10000 µg/mL. Moreover, in series [2], the “plasma levels (PK analysis)” value is recorded as “measurable plasma levels” and the concentration at 24 h is under 110 ng/mL.
`CC(=O)N1CCC[C@H]1COc1ccc2c(c1)c(SC(C)(C)C)c(CC(C)(C)C(=O)O)n2Cc1ccc(Cl)cc1` [Compound I, 3-[5-((S)-1-Acetyl-pyrrolidin-2-ylmethoxy)-3-tert-butylsulfanyl-1-(4-chloro-benzyl)-1H-indol-2-yl]-2,2-dimethyl-propionic acid] displayed a Draize score with Male Sprague Dawley Rats of 0. Also, the solubility in series [1] was at least 10000 µg/mL. In addition, in series [2], the “plasma levels (PK analysis)” value is on record as “measurable plasma levels” and the concentration at 24 h was under 110 ng/mL.
`CC(C)(C)Sc1c(CC(C)(C)C(=O)O)n(Cc2ccc(-c3ccc(F)cn3)cc2)c2ccc(OCc3ccc4ccccc4n3)cc12` [Compound F, 3-[3-tert-Butylsulfanyl-1-[4-(5-fluoro-pyridin-2-yl)-benzyl]-5-(quinolin-2-ylmethoxy)-1H-indol-2-yl]-2,2-dimethyl-propionic acid]: in the series with Male Sprague Dawley Rats, the Draize score is on record as 0. In series [1], the solubility was at least 10000 µg/mL. In series [2], the “plasma levels (PK analysis)” value is “measurable plasma levels” and the concentration at 24 h is under 110 ng/mL.
As for `COc1cnc(-c2ccc(Cn3c(CC(C)(C)C(=O)O)c(SC(C)(C)C)c4cc(OCc5ccc(C)cn5)ccc43)cc2)nc1` [Compound A, 3-[3-tert-Butylsulfanyl-1-[4-(5-methoxy-pyrimidin-2-yl)-benzyl]-5-(5-methyl-pyridin-2-ylmethoxy)-1H-indol-2-yl]-2,2-dimethyl-propionic acid], the Draize score in the series with Male Sprague Dawley Rats is 0. In addition, the solubility in series [1] is at least 10000 µg/mL. Besides, in series [2], the “plasma levels (PK analysis)” value is given as “measurable plasma levels”. For the same compound, the concentration at 24 h in series [2] is under 110 ng/mL. For the same compound, the “reduction of LTB4 levels” value in the series with Leukotriene B4 (LTB4) (applied dermally 4 hours prior to AA treatment (FIG. 3B)) was “about 55%”; in the series with Leukotriene B4 (LTB4) (oral, 30 mg/kg, 4 hours prior to AA treatment (FIG. 2B)) it was “about 33%”. The “reduction of CysLT levels” value in series [5] (applied dermally 4 hours prior to AA treatment (FIG. 3C)) is recorded as “about 37%”; in series [5] (oral, 30 mg/kg, 4 hours prior to AA treatment (FIG. 2C)) it was “about 57%”. The “reduction of inflammation by measure of change in ear weight” value is listed as “about 60%” in series [6] (applied dermally 4 hours prior to AA treatment (FIG. 3A)) and “about 65%” in series [6] (oral, 30 mg/kg, 4 hours prior to AA treatment (FIG. 2A)). In addition, the “topical concentration of maximal activity” value in series [6] (topical concentrations of 0.01-10%, all three endpoints (ear weight, LTB4, CysLT)) is 0.1%.
